According to patent EP0256909B1, “N,N-bis-(4-fluorophenyl) carbamoyl acetohydroxamic acid and pharmaceutical composition containing it” (priority 1986, dated 1988):
“Also recorded” adds a separate entry of the source.

Experiments:
[1] = system: souris; test: Motility reduced by habituation to the enclosure; assay type: in vivo; conditions: 32, 128 et 512 mg/kg i.p.
Procedure: Après 18 h de séjour dans les actimètres, les souris (6 par dose, 12 témoins) reçoivent le CRL 41131. Elles sont aussitôt replacées dans leurs enceintes respectives et, 30 min plus tard, on enregistre leur motilité pendant 30 min.

[2] = system: souris; test: Four plates test; assay type: in vivo; conditions: mouse, 30 min after i.p. administration
Procedure: (§1) Le CRL 41131, en suspension dans une solution de gomme arabique à 5%, a été administré par voie intrapéritonéale sous un volume de 20 ml/kg chez la souris (mâle, NMRI, Evic Ceba) et de 5 ml/kg chez le rat (mâle, CD1, Sprague Dawley, Charles River).
(§2) Le test est pratiqué sur des lots de 10 souris, 30 min après l'administration de CRL 41131.

[3] = system: souris; test: Behavioural despair (forced immersion); assay type: in vivo; conditions: 32, 128, 512 mg/kg i.p., 2nd to 6th minute
Description: Trente min après avoir reçu le CRL 41131, des lots de 6 souris (mâles, CD1, Charles River) sont placés dans un bécher rempli d'eau sur une hauteur de 6 cm. On note la durée totale d'immobilité entre la deuxième et la sixième minute suivant l'immersion.

[4] = system: homme; test: Use as stimulant antidepressant in man; assay type: in vivo; conditions: 2 to 3 tablets of 150 mg per day, oral route
[5] = system: rat; test: Search for stereotyped movements; assay type: in vivo; conditions: for mouvements stéréotypés (cotes): 22 h 30 min after administration, scored 0 to 3
Procedure: as §1

[6] = system: souris; conditions: in vivo, ip
Procedure: as §1, §2

[7] = system: souris; test: Interaction with reserpine; assay type: in vivo; conditions: 128 et 512 mg/kg i.p., mouse, 4 h after reserpine 2,5 mg/kg i.p.
Procedure: Quatre heures après l'injection intrapéritonéale de 2,5 mg/kg de réserpine, des lots de 6 souris reçoivent le CRL 41131.

[8] = system: souris; test: Interaction with barbital; assay type: in vivo; conditions: 128 et 512 mg/kg, barbital 220 mg/kg i.p.
Procedure: Trente minutes après l'administration de CRL 41131, des lots de 10 souris reçoivent une injection intrapéritonéale de barbital (220 mg/kg).

[9] = system: souris; test: Pretoxicity (3 mice per dose); conditions: intraperitoneal, mouse
Procedure: as §1

[10] = system: souris; test: Spontaneous motility (actimeter); assay type: in vivo
Procedure: Après avoir reçu le CRL 41131, les souris (6 par dose, 12 témoins) sont placées en actimètre où leur motilité est enregistrée pendant 30 min.

[11] = system: souris; test: Intergroup aggressiveness; assay type: in vivo
Procedure: Après avoir séjourné pendant 3 semaines dans chacune des moitiés d'une cage séparées par une cloison opaque, des groupes de 3 souris reçoivent le CRL 41131. Trente minutes plus tard, les deux groupes d'une même cage sont réunis par retrait de la cloison et on note le nombre de combats qui surviennent en 10 min.

[12] = system: souris; test: Asphyxic anoxia (gallamine triethiodide); assay type: in vivo; conditions: i.p. 30 min before gallamine triethiodide 32 mg/kg i.p.
Procedure: Des lots de 10 souris reçoivent le CRL 41131 30 min avant l'administration intrapéritonéale de 32 mg/kg de triiodoéthylate de gallamine.

[13] = Solubility of the powder in solvents; assay type: physicochemical
[14] = system: rat; test: Global behaviour and reactivities, rat; assay type: in vivo
Procedure: (§3) Des lots de 3 animaux sont observés avant, puis 15 min, 30 min, 1 h, 2 h, 3 h et 24 h après l'administration de CRL 41131.

[15] = system: rat; test: Interaction with amphetamine; assay type: in vivo
[16] = system: souris; test: Electroshock test; assay type: in vivo
[17] = system: souris; test: Global behaviour and reactivities, mouse; assay type: in vivo
Procedure: as §3

[18] = system: souris; test: Motility reduced by hypoxic aggression; assay type: in vivo; conditions: 8, 32, above all 128 et 512 mg/kg i.p., after acute hypobaric anoxia
Procedure: Trente minutes après avoir reçu le CRL 41131, les souris (10 par dose, 20 témoins) sont soumises à une anoxie hypobare aiguë (dépression de 600 mmHg en 90 s, détente de 45 s), puis elles sont placées en actimètre où leur motilité est enregistrée pendant 10 min.

[19] = system: rat; test: Interaction with apomorphine, rat; assay type: in vivo; conditions: 64 and above all 256 mg/kg i.p., 30 min before s.c. apomorphine 0,5 mg/kg
Procedure: as §1
Le CRL 41131 est administré à des lots de 6 rats 30 min avant l'injection sous-cutanée de 0,5 mg/kg d'apomorphine.

[20] = system: souris; test: Interaction with apomorphine, mouse; assay type: in vivo; conditions: compound i.p. 30 min before s.c. apomorphine 1 or 16 mg/kg
Procedure: as §1
Des lots de 6 souris reçoivent le CRL 41 131 30 min avant l'injection sous-cutanée d'apomorphine, à la dose de 1 ou 16 mg/kg. • a) Apomorphine 1 mg/kg • b) Apomorphine 16 ma/ka

[21] = comparison section, no dose given

For `O=C(CC(=O)N(c1ccc(F)cc1)c1ccc(F)cc1)NO` [CRL 41131, acide N,N-bis-(4-fluorophényl) carbamoylacétohydroxamique], the “activité motrice chez la souris habituée à son enceinte” value [1] was “reprise nette de l'activité motrice”, the “nombre de passages punis” value [2] was “n'entraîne pas d'augmentation nette du nombre de passages punis” and the “durée de l'immobilité” value [3] was “diminue la durée de l'immobilité”. For the same molecule, the “résultats comme antidépresseur stimulant chez l'homme” value [4] was “bons résultats comme antidépresseur stimulant”, the “mouvements stéréotypés (cotes)” value ([5]; 64 mg/kg i.p.) was 1 and the “mouvements stéréotypés (cotes)” value ([5]; 128 mg/kg i.p.) was 2. The “mouvements stéréotypés (cotes)” value ([5]; 256 mg/kg i.p.) was 3, the “mouvements stéréotypés persistant pendant” value ([5]; 128 et 256 mg/kg i.p.) was over 30 h and the “mouvements stéréotypés” value ([5]; from the lowest dose used, 64 mg/kg i.p.) was “provoque l'apparition de mouvements stéréotypés”. The incapacité motrice [6] was “ne provoque pas l'incapacité motrice majeure”, the “hypothermie réserpinique” value [7] was “s'oppose tardivement (24 h)” and the “ptôsis réserpinique” value [7] was “s'oppose tardivement (24 h)”. The “durée du sommeil barbiturique” value [8] was “diminue encore le sommeil; also recorded: diminue la durée du sommeil barbiturique”, the “Prétoxicité: signes observés” value ([9]; 512 mg/kg) was “sédation, crampes abdominales, diminution de la fréquence respiratoire pendant 30 min, puis excitation. A 24 h : excitation et stéréotypies” and the “Prétoxicité: signes observés” value ([9]; 1024 mg/kg) was “sédation, crampes abdominales, diminution de la fréquence respiratoire pendant 30 min, puis excitation. A 24 h : excitation, stéréotypies et convulsions”. For the same molecule, the “Prétoxicité: signes observés” value ([9]; 128 et 256 mg/kg) was “à partir de 30 min : excitation; à 24 h, l'excitation est encore présente, et présence de stéréotypies”, the mortalité ([9]; 128 to 1024 mg/kg) was “Aucune mortalité” and the “durée de l'effet” value ([10]; 32 mg/kg i.p.) was 4 h. The “durée de l'effet” value ([10]; 128 mg/kg i.p.) was 4 à 24 h, the “durée de l'effet” value ([10]; 512 mg/kg i.p.) was over 24 h and the hypermotilité ([10]; 512 mg/kg i.p. (highest dose), given 30 min before actimeter) was “l'hypermotilité est moins importante qu'à 128 mg/kg”. The “activité motrice spontanée” value ([10]; 8, 32, 128 et 512 mg/kg i.p., given 30 min before actimeter) was “augmente modérément l'activité motrice spontanée”, the “activité motrice spontanée” value ([10]; 128 et 512 mg/kg i.p., given 2 h before actimeter) was “cette augmentation est plus nette” and the “motilité spontanée” value ([10]; 128 et 512 mg/kg i.p., given 4 h before actimeter) was “augmente la motilité spontanée”. The “activité motrice spontanée” value ([10]; from 8 mg/kg i.p., given 2 h before actimeter) was “augmente l'activité motrice spontanée”, the minimal effective dose ([10]; ip, mouse, i.p., overall conclusion, read-out: doses qui augmentent l'activité motrice spontanée) was at least 32 mg/kg and the “motilité spontanée” value ([10]; only 512 mg/kg i.p., given 24 h before actimeter) was “augmente modérément la motilité spontanée”. The nombre de combats ([11]; 512 mg/kg i.p. (highest dose used), 30 min before, fights in 10 min) was “diminue nettement le nombre de combats”, the “agressivité intergroupe des souris” value ([11]; 128 et 512 mg/kg, comparison section) was “diminution” and the “délai d'apparition des convulsions consécutives à une anoxie asphyxique” value [12] was “ne modifie pratiquement pas”. The “solubilité dans les alcools, l'acétone, l'acétate d'éthyle” value ([13]; alcohols, acetone, ethyl acetate) was “soluble”, the “solubilité dans l'éther” value ([13]; ether) was “peu soluble” and the “solubilité dans l'éther isopropylique” value ([13]; isopropyl ether) was “insoluble”. For the same molecule, the “solubilité dans l'eau” value ([13]; water) was “insoluble”, the “comportement: excitation, réaction de peur” value ([14]; 256 mg/kg i.p.) was “excitation et augmentation de la réaction de peur (entre 2 h et 24 h)” and the “stéréotypies, réactivité au toucher” value ([14]; 256 mg/kg i.p., 24 h) was “stéréotypies, augmentation de la réactivité au toucher en 24 h”. The “comportement et réactivités” value ([14]; 4, 16 et 64 mg/kg i.p.) was “pas de modification nette du comportement et des réactivités”, the “stéréotypies amphétaminiques” value ([15]; 64 and above all 256 mg/kg i.p., rat, 30 min before amphetamine 2 mg/kg i.p.) was “potentialisation importante” and the “test à l'amphétamine: stéréotypies du rat” value [15, 21] was “potentialise ces stéréotypies”. The “effets létaux de l'électrochoc” value ([16]; 32, 128 et 512 mg/kg i.p., mouse, 30 min after administration) was “aggrave modérément les effets létaux de l'électrochoc”, the “test à l'électrochoc” value [16, 21] was “aggrave les effets létaux de l'électrochoc” and the “Comportement global: excitation” value ([17]; 128 mg/kg i.p.) was “excitation (1/3) pendant 1 h”. For the same molecule, the “Comportement global: excitation” value ([17]; 512 mg/kg i.p.) was “excitation (1/3 pendant 1 h, 2/3 entre 2 et 3 h, et 3/3 à 24 h)”, the “Comportement global et réactivités à 24 h” value ([17]; 512 mg/kg i.p., 24 h) was “mouvements d'apparence stéréotypée, augmentation de la réaction de peur et de la réactivité au toucher à 24 h” and the “Comportement, réactivités, variations du diamètre pupillaire et de la température” value ([17]; 8 et 32 mg/kg i.p.) was “comparables à ceux du lot témoin”. The récupération motrice [18] was “amélioration de la récupération motrice”, the “stéréotypies induites par l'apomorphine” value [19] was “potentialisation” and the “action hypothermisante induite par l'apomorphine” value [20] was “ne s'oppose pas”. The “comportements de verticalisation et de stéréotypies” value [20] was “ne sont pas modifiés”.
